Data: patent publication US9476064B2, “Neuro-progenitor produced from an SCNT-derived ES cell” (H. Bion Co., Ltd., priority 2003, dated 2016)

Test system: nucleus-transferred oocytes
Experiment: Development of nucleus-transferred oocytes after reprogramming and chemical activation
Format: cell-based, human
Conditions: then 2.0 mM 6-DMAP, reprogramming time 2 hour, G1.2 then SNUnt-2, 16 oocytes
Source text: Since a sperm-mediated activation, which is one of the major factors for a normal embryonic development, was absent in case of the nucleus-transferred oocyte obtained in Example 2, an artificial stimulus was needed instead. In order to determine the optimum conditions for artificial embryogenesis, therefore, nucleus-transferred oocytes were reprogrammed, activated and in vitro cultured under various conditions as shown in Tables 2 to 4.
Such nucleus-transferred oocytes were washed several times with the G1.2 medium, transferred to the G1.2 medium containing 2.0 mM 6-DMAP (Sigma Co., St. Louis, Mo., U.S.A.) and, then, cultured at 37° C., 5% CO2, 5% O2 and 90% N2 for 4 hours. After these activation steps, the nucleus-transferred oocytes were in vitro cultured under the same condition.

## C[C@H](CCC(=O)O)C[C@H](C)C[C@H](C)C(=O)/C=C(\O)[C@H](C)C[C@H](C)C/C=C/[C@@H](C)[C@@H](O)[C@@H](C)[C@@H](O)C[C@@H]1CC[C@@](C)([C@H]2CC[C@@](C)([C@@H](C)O)O2)O1 [ionomycin]
5 μM
  No. of nucleus-transferred oocytes developed to 2-cell stage: 9
  No. of nucleus-transferred oocytes developed to blastocyst: 0
  No. of nucleus-transferred oocytes developed to morula: 0
10 μM
  No. of nucleus-transferred oocytes developed to 2-cell stage: 12
  No. of nucleus-transferred oocytes developed to blastocyst: 0
  No. of nucleus-transferred oocytes developed to morula: 0
